# Experimental data reported in patent publication US4568690A, “1-Methyl-5-p-methylbenzoylpyrrole-2-acetamidoacetanilides with antiinflammatory, analgesic, antipyretic and anti-platelet aggregant activity” (priority 1983, dated 1986).
# Legend:
# carragenin-induced edema = carragenin-induced edema test (antinflammatory activity); assay type: in vivo, rats
# Protocol: (§1) Preparations of the compound were administered orally and/or parenterally in a suspension in 0.59% carboxymethylcellulose in pH neutral physiological saline.
# This effect was evaluated with an experimental model reproducing actue inflammation in rats: the carragenin-induced edema test was used, according to the method of C. A. Winter (G. Pharmac. Exp. Ther., 141, 369 (1963)). Table III reports the compounds tested, their concentrations, administration routes and relative percent edema inhibition.
# [1] = system: p-phenylquinone-induced writhing; experiment: p-phenylquinone-induced writhing test (analgesic activity); assay type: in vivo; settings: an hour after administration
# Protocol: as §1
# The determination was made an hour after administration of the product. The inhibitory effect on abdominal contractions induced by phenyl-p-quinone was calculated as follows: [formula]
# Table IV reports the doses, the administration routes and their effectiveness expressed as % protection.
# [2] = system: hyperthermia induced by dry purified beer yeast; experiment: antipyretic activity, beer yeast-induced hyperthermia; assay type: in vivo, Wistar strain male albino rats
# Protocol: as §1
# This effect was evaluated by inducing hyperthermia in Wistar strain male albino rats with an average weight of 250±10 g, injecting them intraperitoneally with a 10% suspension of dry purified beer yeast (Carlo Erba) in a volume of 10 ml/Kg of body weight, according to the method of S. Wong et al. (J. Pharmac. Exp. Ther., 185 (1), 127 (1973)).
# [3] = system: platelet aggregation (ADP-induced); experiment: in vitro anti-platelet aggregant activity (Born's method, ADP); assay type: cell-based, rat; settings: Rattus norvegicus, Platelet, ADP 7.08 μmol/l, read-out: Inhibition % (platelet aggregation)
# Protocol: This activity was studied in vitro following Born's method (G. W. R. Born, Nature, 194, 937 (1962)) and inducing platelet aggregation with ADP. […] For the aggregation test, 0.2 ml of platelet rich plasma was mixed with a NaCl solution (0.9%) to which the test substance was added up to a final volume of 0.6 ml. Incubation was fixed at 3 minutes at 27° C. After aggregation was induced with ADP, the course of the aggregation was monitored continuously with an Elvi 840 Aggregometer (Elvi Logos--Milan). The antiaggregant effects were determined by the difference in the light transmission of the sample with respect to that of the ADP control. The test compound was compared with aspirin, which has known antiplatelet aggregant activity (H. J. Weiss et al., J. Clin. Inv., 47, 2169 (1968); Platelet Aggregation and Drugs, edited by L. Caprino and E. C. Rossi, page 235, Academic Press (London), 1974).
# Table VI reports the inhibition of platelet aggregation with various doses of the compounds tested at a constant ADP concentration.
# in vivo = settings: rat, ip
# gastric mucosa = experiment: gastric tolerance (ulcerogenic activity); settings: orally, four consecutive days; for Mean number severity: severity scale 0-5
# Protocol: This was studied by testing ulcerogenic activity in male Wistar rats weighing an average of 180 g, using groups of 10 animals each. Three doses of each substance were used, and one group of animals was treated with vehicle only, in a volume of 10 ml/g body weight. Each dose was administered orally for four consecutive days, and the rats were killed on the fifth day and autopsied. The ulcerogenic effect was evaluated on the following scale:
# (1) each hemorrhage point >1 mm was evaluated as 1 lesion
# (2) the hemorrhage points <1 were counted as follows:
# (b) from 1 to 19 2 lesions
# (c) from 1 to 29 3 lesions
# (2) gastric mucosa irritation
# (3) hemorrhage points <1 mm
# (4) hemorrhage points from 1 to 3 mm
# (5) hemorrhage points >3 mm
# This scale was used to calculate the following index of gastric damage: [formula]
structure (smiles),measurement,setting,value
Cc1ccc(C(=O)c2ccc(CC(=O)NCC(=O)Nc3cccc(C)c3C)n2C)cc1 [Compound 1f],Oedema inhibition %,"carragenin-induced edema; i.p., 10 mg/kg, 3 h",37.1%
same,Oedema inhibition %,"carragenin-induced edema; i.p., 10 mg/kg, 6 h",33.4%
same,Oedema inhibition %,"carragenin-induced edema; i.p., 10 mg/kg, 24 h",0.0%
same,Oedema inhibition %,"carragenin-induced edema; i.p., 50 mg/kg, 3 h",51.6%
same,Oedema inhibition %,"carragenin-induced edema; i.p., 50 mg/kg, 6 h",53.9%
same,Oedema inhibition %,"carragenin-induced edema; i.p., 50 mg/kg, 24 h",4.2%
same,Oedema inhibition %,"carragenin-induced edema; i.p., 100 mg/kg, 3 h",72.5%
same,Oedema inhibition %,"carragenin-induced edema; i.p., 100 mg/kg, 6 h",70.0%
same,Oedema inhibition %,"carragenin-induced edema; i.p., 100 mg/kg, 24 h",19.1%
same,Oedema inhibition %,"carragenin-induced edema; os, 10 mg/kg, 3 h",32.6%
same,Oedema inhibition %,"carragenin-induced edema; os, 10 mg/kg, 6 h",34.1%
same,Oedema inhibition %,"carragenin-induced edema; os, 10 mg/kg, 24 h",0.0%
same,Oedema inhibition %,"carragenin-induced edema; os, 50 mg/kg, 3 h",49.1%
same,Oedema inhibition %,"carragenin-induced edema; os, 50 mg/kg, 6 h",49.0%
same,Oedema inhibition %,"carragenin-induced edema; os, 50 mg/kg, 24 h",3.4%
same,Oedema inhibition %,"carragenin-induced edema; os, 100 mg/kg, 3 h",69.7%
same,Oedema inhibition %,"carragenin-induced edema; os, 100 mg/kg, 6 h",69.0%
same,Oedema inhibition %,"carragenin-induced edema; os, 100 mg/kg, 24 h",22.1%
same,Protection %,"[1]; i.p., 5 mg/kg",15.3%
same,Protection %,"[1]; i.p., 10 mg/kg",47.0%
same,Protection %,"[1]; i.p., 20 mg/kg",75.0%
same,Protection %,"[1]; os, 5 mg/kg",18.0%
same,Protection %,"[1]; os, 10 mg/kg",42.1%
same,Protection %,"[1]; os, 20 mg/kg",70.3%
same,Temperature decrease %,"[2]; i.p., 50 mg/kg, 1 h",12.1%
same,Temperature decrease %,"[2]; i.p., 50 mg/kg, 2 h",25.0%
same,Temperature decrease %,"[2]; i.p., 50 mg/kg, 3 h",29.8%
same,Temperature decrease %,"[2]; i.p., 75 mg/kg, 1 h",16.3%
same,Temperature decrease %,"[2]; i.p., 75 mg/kg, 2 h",30.1%
same,Temperature decrease %,"[2]; i.p., 75 mg/kg, 3 h",35.1%
same,Temperature decrease %,"[2]; i.p., 100 mg/kg, 1 h",38.7%
same,Temperature decrease %,"[2]; i.p., 100 mg/kg, 2 h",43.0%
same,Temperature decrease %,"[2]; i.p., 100 mg/kg, 3 h",40.0%
same,Temperature decrease %,"[2]; os, 50 mg/kg, 1 h",15.1%
same,Temperature decrease %,"[2]; os, 50 mg/kg, 6 h",20.0%
same,Temperature decrease %,"[2]; os, 50 mg/kg, 24 h",28.7%
same,Temperature decrease %,"[2]; os, 75 mg/kg, 1 h",18.2%
same,Temperature decrease %,"[2]; os, 75 mg/kg, 6 h",29.5%
same,Temperature decrease %,"[2]; os, 75 mg/kg, 24 h",28.7%
same,Temperature decrease %,"[2]; os, 100 mg/kg, 1 h",22.1%
same,Temperature decrease %,"[2]; os, 100 mg/kg, 6 h",32.0%
same,Temperature decrease %,"[2]; os, 100 mg/kg, 24 h",38.1%
same,inhibition at 1 µg/mL,[3]; 1 γ/ml,22%
same,inhibition at 5 µg/mL,[3]; 5 γ/ml,75%
same,inhibition at 10 µg/mL,[3]; 10 γ/ml,90%
same,LD50,in vivo,1100 mg/kg
same,Mean number lesions,gastric mucosa; 50 mg/kg,1
same,Mean number severity,gastric mucosa; 50 mg/kg,1
same,Mean number lesions,gastric mucosa; 100 mg/kg,2
same,Mean number severity,gastric mucosa; 100 mg/kg,3
same,Mean number lesions,gastric mucosa; 200 mg/kg,3
same,Mean number severity,gastric mucosa; 200 mg/kg,3
"Cc1ccc(C(=O)c2ccc(CC(=O)O)n2C)cc1 [Tolmetin Na.2H2 O, reference compound]",Oedema inhibition %,"carragenin-induced edema; i.p., 10 mg/kg, 3 h",33.7%
same,Oedema inhibition %,"carragenin-induced edema; i.p., 10 mg/kg, 6 h",30.1%
same,Oedema inhibition %,"carragenin-induced edema; i.p., 10 mg/kg, 24 h",0.0%
same,Oedema inhibition %,"carragenin-induced edema; i.p., 50 mg/kg, 3 h",47.1%
same,Oedema inhibition %,"carragenin-induced edema; i.p., 50 mg/kg, 6 h",44.0%
same,Oedema inhibition %,"carragenin-induced edema; i.p., 50 mg/kg, 24 h",0.0%
same,Oedema inhibition %,"carragenin-induced edema; i.p., 100 mg/kg, 3 h",58.3%
same,Oedema inhibition %,"carragenin-induced edema; i.p., 100 mg/kg, 6 h",52.2%
same,Oedema inhibition %,"carragenin-induced edema; i.p., 100 mg/kg, 24 h",5.3%
same,Oedema inhibition %,"carragenin-induced edema; os, 10 mg/kg, 3 h",32.0%
same,Oedema inhibition %,"carragenin-induced edema; os, 10 mg/kg, 6 h",20.0%
same,Oedema inhibition %,"carragenin-induced edema; os, 10 mg/kg, 24 h",0.0%
same,Oedema inhibition %,"carragenin-induced edema; os, 50 mg/kg, 3 h",46.8%
same,Oedema inhibition %,"carragenin-induced edema; os, 50 mg/kg, 6 h",45.0%
same,Oedema inhibition %,"carragenin-induced edema; os, 50 mg/kg, 24 h",0.0%
same,Oedema inhibition %,"carragenin-induced edema; os, 100 mg/kg, 3 h",56.1%
same,Oedema inhibition %,"carragenin-induced edema; os, 100 mg/kg, 6 h",54.3%
same,Oedema inhibition %,"carragenin-induced edema; os, 100 mg/kg, 24 h",8.9%
same,Protection %,"[1]; i.p., 5 mg/kg",16.5%
same,Protection %,"[1]; i.p., 10 mg/kg",46.2%
same,Protection %,"[1]; i.p., 20 mg/kg",69.3%
same,Protection %,"[1]; os, 5 mg/kg",15.0%
same,Protection %,"[1]; os, 10 mg/kg",40.6%
same,Protection %,"[1]; os, 20 mg/kg",62.0%
same,Temperature decrease %,"[2]; i.p., 50 mg/kg, 1 h",16.0%
same,Temperature decrease %,"[2]; i.p., 50 mg/kg, 2 h",19.0%
same,Temperature decrease %,"[2]; i.p., 50 mg/kg, 3 h",31.0%
same,Temperature decrease %,"[2]; i.p., 75 mg/kg, 1 h",20.0%
same,Temperature decrease %,"[2]; i.p., 75 mg/kg, 2 h",29.2%
same,Temperature decrease %,"[2]; i.p., 75 mg/kg, 3 h",34.7%
same,Temperature decrease %,"[2]; i.p., 100 mg/kg, 1 h",28.0%
same,Temperature decrease %,"[2]; i.p., 100 mg/kg, 2 h",39.1%
same,Temperature decrease %,"[2]; i.p., 100 mg/kg, 3 h",31.3%
same,Temperature decrease %,"[2]; os, 50 mg/kg, 1 h",18.0%
same,Temperature decrease %,"[2]; os, 50 mg/kg, 6 h",20.0%
same,Temperature decrease %,"[2]; os, 50 mg/kg, 24 h",29.5%
same,Temperature decrease %,"[2]; os, 75 mg/kg, 1 h",20.0%
same,Temperature decrease %,"[2]; os, 75 mg/kg, 6 h",26.0%
same,Temperature decrease %,"[2]; os, 75 mg/kg, 24 h",27.0%
same,Temperature decrease %,"[2]; os, 100 mg/kg, 1 h",32.0%
same,Temperature decrease %,"[2]; os, 100 mg/kg, 6 h",30.9%
same,Temperature decrease %,"[2]; os, 100 mg/kg, 24 h",47.2%
same,Mean number lesions,gastric mucosa; 50 mg/kg,2
same,Mean number severity,gastric mucosa; 50 mg/kg,2
same,Mean number lesions,gastric mucosa; 100 mg/kg,2.5
same,Mean number severity,gastric mucosa; 100 mg/kg,3.5
same,Mean number lesions,gastric mucosa; 200 mg/kg,3
same,Mean number severity,gastric mucosa; 200 mg/kg,4
